Source: patent publication US20180148418A1, “AMIDO-SUBSTITUTED CYCLOHEXANE DERIVATIVES” (Bayer Pharma Aktiengesellschaft, priority 2015, published 2018)

How the values were obtained:
[1] = test system: HEK293 cells cotransfected with the FOP control vector; test: HEK293 FOP assay (control reporter with non-functional TCF elements); format: cell-based; details: Homo sapiens, 16 hours
Method in brief: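 Stable HEK293 line carrying FOP control reporter (randomized non-functional TCF sites, with pcDNA3), Geneticin-selected, plated 24 h before assay. Stimulated with recombinant human Wnt-3a (2500-5 ng/ml) and compounds 50 μM–15 nM (3.16-fold steps) in CAFTY buffer pH 7.4 with 2 mM Ca2+, 0.01% BSA, run parallel to TOP line.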

[2] = molecular target: T1, TNKS2 (Homo sapiens, UniProt Q9H2K2); test: TNKS2 Assay B (auto-parsylation, [3H]-NAD+ SPA); format: biochemical; details: 6 nM TNKS2, auto-parsylation, over night at room temperature
T1 construct: purchased BPS Bioscience, San Diego, USA 80572 (TNKS2 Histone Ribosylation Assay Kit)
T1 sequence (Q9H2K2 1-1166): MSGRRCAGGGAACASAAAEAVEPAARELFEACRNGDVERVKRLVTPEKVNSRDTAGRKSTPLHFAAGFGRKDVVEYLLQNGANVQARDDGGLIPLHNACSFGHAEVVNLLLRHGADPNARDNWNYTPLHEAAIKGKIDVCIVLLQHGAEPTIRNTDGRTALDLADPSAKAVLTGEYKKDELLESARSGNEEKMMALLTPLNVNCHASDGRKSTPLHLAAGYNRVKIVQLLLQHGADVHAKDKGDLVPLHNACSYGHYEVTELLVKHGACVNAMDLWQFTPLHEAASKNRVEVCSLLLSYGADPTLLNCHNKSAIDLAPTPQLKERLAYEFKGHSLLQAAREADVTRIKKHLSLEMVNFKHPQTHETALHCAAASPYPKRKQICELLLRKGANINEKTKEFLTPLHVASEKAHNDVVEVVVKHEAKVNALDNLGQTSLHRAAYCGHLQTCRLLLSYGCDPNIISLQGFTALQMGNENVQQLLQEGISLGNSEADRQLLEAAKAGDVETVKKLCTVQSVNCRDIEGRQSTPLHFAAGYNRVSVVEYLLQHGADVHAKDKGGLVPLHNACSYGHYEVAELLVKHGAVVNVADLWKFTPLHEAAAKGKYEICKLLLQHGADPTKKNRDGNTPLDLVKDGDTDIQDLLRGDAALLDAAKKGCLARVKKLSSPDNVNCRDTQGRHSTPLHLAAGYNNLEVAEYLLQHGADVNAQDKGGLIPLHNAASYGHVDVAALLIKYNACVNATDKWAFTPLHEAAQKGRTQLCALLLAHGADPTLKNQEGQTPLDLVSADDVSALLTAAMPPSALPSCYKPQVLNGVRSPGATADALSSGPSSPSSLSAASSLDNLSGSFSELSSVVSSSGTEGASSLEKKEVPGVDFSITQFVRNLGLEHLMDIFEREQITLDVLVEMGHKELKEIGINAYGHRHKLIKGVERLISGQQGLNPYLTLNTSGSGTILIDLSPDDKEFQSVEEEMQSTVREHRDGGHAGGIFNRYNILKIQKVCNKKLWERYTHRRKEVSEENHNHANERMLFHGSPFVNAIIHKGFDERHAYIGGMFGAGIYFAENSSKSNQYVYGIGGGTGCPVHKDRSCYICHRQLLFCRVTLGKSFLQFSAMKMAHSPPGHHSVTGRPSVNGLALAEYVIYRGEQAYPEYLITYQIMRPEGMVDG

[3] = test system: wildtype Wnt signaling cascade; test: HEK293 TOP assay (Super TopFlash luciferase reporter, Wnt-3a stimulated); format: cell-based; details: Homo sapiens, HEK293, 16 h, HEK293 TOP reporter cells, Wnt3a at EC50, 16 hours
Method in brief: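 HEK293 cells stably carrying Super TopFlash (TOP) run in parallel with FOP cells, 10000/well plated 24 h ahead, stimulated with recombinant human Wnt-3a. Compounds tested 50 μM to 15 nM in 3.16-fold steps in CAFTY buffer pH 7.4 with 2 mM Ca^2+ and 0.01% BSA; luciferase read-out.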

Row | SMILES | IC50 [2] [nM] | IC50 [3] [nM] | IC50 [1] [nM]
1 | Nc1nn2cccnc2c1C(=O)N[C@H]1CC[C@H](C(=O)Nc2ccc(F)cc2Cl)CC1 [Example 59, 2-amino-N-{trans-4-[(2-chloro-4-fluorophenyl)carbamoyl]cyclohexyl}pyrazolo[1,5-a]pyrimidine-3-carboxamide] | 500 | 1300 | ≥ 50000
2 | Cc1cc(C(C)(C)C)n2ncc(C(=O)N[C@H]3CC[C@H](C(=O)Nc4ccc(F)cc4Cl)CC3)c2n1 [Example 60, 7-tert-butyl-N-{trans-4-[(2-chloro-4-fluorophenyl)carbamoyl]cyclohexyl}-5-methylpyrazolo[1,5-a]pyrimidine-3-carboxamide] | 2200 | 620 | 24000
3 | Cc1cnc2c(C(=O)N[C@H]3CC[C@H](C(=O)Nc4ccc(F)cc4Cl)CC3)cnn2c1 [Example 61, N-{trans-4-[(2-chloro-4-fluorophenyl)carbamoyl]cyclohexyl}-6-methylpyrazolo[1,5-a]pyrimidine-3-carboxamide] | 34 | 21 | ≥ 50000
4 | Cc1cc(C2CC2)nc2c(C(=O)N[C@H]3CC[C@H](C(=O)Nc4ccc(F)cc4Cl)CC3)cnn12 [Example 62, N-{trans-4-[(2-chloro-4-fluorophenyl)carbamoyl]cyclohexyl}-5-cyclopropyl-7-methylpyrazolo[1,5-a]pyrimidine-3-carboxamide] | 2000 | 12000 | ≥ 50000
5 | COCC(C)NC(=O)c1nc[nH]c1C(=O)N[C@H]1CC[C@H](C(=O)Nc2c(F)cc(F)cc2Cl)CC1 (stereo partly drawn) [Example 65, N^5-{trans-4-[(2-chloro-4,6-difluorophenyl)carbamoyl]cyclohexyl}-N^4-(1-methoxypropan-2-yl)-1H-imidazole-4,5-dicarboxamide] | 190 | 230 | ≥ 50000
6 | COC[C@H](C)NC(=O)c1nc[nH]c1C(=O)N[C@H]1CC[C@H](C(=O)Nc2c(F)cc(F)cc2Cl)CC1 [Example 66, N^5-{trans-4-[(2-chloro-4,6-difluorophenyl)carbamoyl]cyclohexyl}-N^4-[(2S)-1-methoxypropan-2-yl]-1H-imidazole-4,5-dicarboxamide] | 280 | 250 | ≥ 50000
7 | COC[C@@H](C)NC(=O)c1nc[nH]c1C(=O)N[C@H]1CC[C@H](C(=O)Nc2c(F)cc(F)cc2Cl)CC1 [Example 67, N^5-{trans-4-[(2-chloro-4,6-difluorophenyl)carbamoyl]cyclohexyl}-N^4-[(2R)-1-methoxypropan-2-yl]-1H-imidazole-4,5-dicarboxamide] | 280 | 220 | ≥ 50000
8 | COC(C)CNC(=O)c1nc[nH]c1C(=O)N[C@H]1CC[C@H](C(=O)Nc2c(F)cc(F)cc2Cl)CC1 (stereo partly drawn) [Example 68, N^5-{trans-4-[(2-chloro-4,6-difluorophenyl)carbamoyl]cyclohexyl}-N^4-(2-methoxypropyl)-1H-imidazole-4,5-dicarboxamide] | 79 | 120 | 33000
9 | O=C(NCC1CCCO1)c1nc[nH]c1C(=O)N[C@H]1CC[C@H](C(=O)Nc2c(F)cc(F)cc2Cl)CC1 (stereo partly drawn) [Example 69, N^5-{trans-4-[(2-chloro-4,6-difluorophenyl)carbamoyl]cyclohexyl}-N^4-(tetrahydrofuran-2-ylmethyl)-1H-imidazole-4,5-dicarboxamide] | 57 | 170 | ≥ 50000
10 | O=C(NC[C@H]1CCCO1)c1nc[nH]c1C(=O)N[C@H]1CC[C@H](C(=O)Nc2c(F)cc(F)cc2Cl)CC1 [Example 70, N^5-{trans-4-[(2-chloro-4,6-difluorophenyl)carbamoyl]cyclohexyl}-N^4-[(2R)-tetrahydrofuran-2-ylmethyl]-1H-imidazole-4,5-dicarboxamide] | 76 | 220 | 29000

Further lines, with some results ahead:

Row | IC50 [2] [nM] | IC50 [3] [nM] | SMILES | IC50 [1] [nM]
11 | 31 | 54 | CNC(=O)c1nc[nH]c1C(=O)N[C@H]1CC[C@H](C(=O)Nc2cc(C)c(F)cc2Cl)CC1 [Example 63, N^5-{trans-4-[(2-chloro-4-fluoro-5-methylphenyl)carbamoyl]cyclohexyl}-N^4-methyl-1H-imidazole-4,5-dicarboxamide] | ≥ 50000
12 | 49 | 740 | Cc1cc(NC(=O)[C@H]2CC[C@H](NC(=O)c3[nH]cnc3C(=O)NCC3CCCO3)CC2)c(Cl)cc1F (stereo partly drawn) [Example 64, N^5-{trans-4-[(2-chloro-4-fluoro-5-methylphenyl)carbamoyl]cyclohexyl}-N^4-(tetrahydrofuran-2-ylmethyl)-1H-imidazole-4,5-dicarboxamide] | 27000
13 | 26 | 140 | O=C(N[C@H]1CC[C@H](C(=O)Nc2ccc(F)cc2Cl)CC1)c1[nH]cnc1C(=O)N1CC(F)(F)C1 [Example 72, N-{trans-4-[(2-chloro-4-fluorophenyl)carbamoyl]cyclohexyl}-4-[(3,3-difluoroazetidin-1-yl)carbonyl]-1H-imidazole-5-carboxamide] | ≥ 50000
14 | 190 | 400 | COC(C)(C)CNC(=O)c1nc[nH]c1C(=O)N[C@H]1CC[C@H](C(=O)Nc2ccc(F)cc2Cl)CC1 [Example 73, N^5-{trans-4-[(2-chloro-4-fluorophenyl)carbamoyl]cyclohexyl}-N^4-(2-methoxy-2-methylpropyl)-1H-imidazole-4,5-dicarboxamide] | 19000
15 | 73 | 190 | O=C(NCCC1CC1)c1nc[nH]c1C(=O)N[C@H]1CC[C@H](C(=O)Nc2ccc(F)cc2Cl)CC1 [Example 74, N^5-{trans-4-[(2-chloro-4-fluorophenyl)carbamoyl]cyclohexyl}-N^4-(2-cyclopropylethyl)-1H-imidazole-4,5-dicarboxamide] | 32000
16 | 100 | 370 | CC(C)(O)CNC(=O)c1nc[nH]c1C(=O)N[C@H]1CC[C@H](C(=O)Nc2ccc(F)cc2Cl)CC1 [Example 75, N^5-{trans-4-[(2-chloro-4-fluorophenyl)carbamoyl]cyclohexyl}-N^4-(2-hydroxy-2-methylpropyl)-1H-imidazole-4,5-dicarboxamide] | ≥ 50000
17 | 78 | 230 | CC(C)OCCNC(=O)c1nc[nH]c1C(=O)N[C@H]1CC[C@H](C(=O)Nc2ccc(F)cc2Cl)CC1 [Example 76, N^5-{trans-4-[(2-chloro-4-fluorophenyl)carbamoyl]cyclohexyl}-N^4-(2-isopropoxyethyl)-1H-imidazole-4,5-dicarboxamide] | ≥ 50000
18 | 60 | 270 | CC(C)NCCNC(=O)c1nc[nH]c1C(=O)N[C@H]1CC[C@H](C(=O)Nc2ccc(F)cc2Cl)CC1 [Example 77, N^5-{trans-4-[(2-chloro-4-fluorophenyl)carbamoyl]cyclohexyl}-N^4-[2-(isopropylamino)ethyl]-1H-imidazole-4,5-dicarboxamide] | ≥ 50000
19 | 89 | 130 | O=C(NCC1CCCO1)c1nc[nH]c1C(=O)N[C@H]1CC[C@H](C(=O)Nc2ccc(F)cc2Cl)CC1 (stereo partly drawn) [Example 78, N^5-{trans-4-[(2-chloro-4-fluorophenyl)carbamoyl]cyclohexyl}-N^4-(tetrahydrofuran-2-ylmethyl)-1H-imidazole-4,5-dicarboxamide] | 9700
20 | 100 | 140 | O=C(NC[C@@H]1CCCO1)c1nc[nH]c1C(=O)N[C@H]1CC[C@H](C(=O)Nc2ccc(F)cc2Cl)CC1 [Example 79, N^5-{trans-4-[(2-chloro-4-fluorophenyl)carbamoyl]cyclohexyl}-N^4-[(2S)-tetrahydrofuran-2-ylmethyl]-1H-imidazole-4,5-dicarboxamide] | 43000
